Assay results reported in article PMC10475101, “Selective steroidogenic cytochrome P450 haem iron ligation by steroid-derived isonitriles” (Communications Chemistry, 2023).
“Also recorded” adds a separate entry of the source.

Key:
[1] = target: T1, CYP3A4 (Homo sapiens, UniProt P08684); assay: in vitro; format: binding
T1 construct: made in house
Procedure: (§1) (Adapted from DeVore, et al.)[25] Ligand interaction with the heme iron was evaluated by titrating ligands into a cuvette containing purified CYP17A1[14], CYP2D6 L230D/L231R[26], or CYP3A4[27] and measured using a UV-visible scanning spectrophotometer. Enzyme was diluted to 0.2 µM in 100 mM potassium phosphate buffer (pH 7.4), 20% glycerol, and 100 mM sodium chloride and divided equally between two 5 mL cuvettes to evaluate high-affinity binding. Ligands dissolved in dimethylsulfoxide (DMSO) were added to the sample cuvette and an equal volume of DMSO to the reference cuvette. Difference spectra were recorded from 300 to 500 nm after equilibration of enzyme and ligand. Binding to the enzyme was measured as the difference in maximal and minimal absorbance: A387—A419 for pregnanolone and 3-formyl pregnanolone, and A435—A393 for compound 1 with CYP17A1; A434—A414 for compound 1 with CYP3A4 and CYP2D6. The dissociation constant and maximum spectral change were calculated using tight-binding or quadratic equation. All data fitting was accomplished using GraphPad Prism 9. Details of fitting are provided in Supplementary Information, and numerical data used to generate graphs in Figs. 2, 4 and 5 are provided in Supplementary Data 3 in Excel format.

[2] = target: T2, CYP17A1 (Homo sapiens, UniProt P05093); assay: Ligand binding assay (UV-visible difference spectra titration); conditions: for Soret peak after titration (heme spectral shift from 417 nm water-bound): ferric CYP17A1, 430 nm = Fe—C isonitrile bond, 424 nm = type II Fe—N
T2 construct: made in house
T2 sequence (P05093 1-508): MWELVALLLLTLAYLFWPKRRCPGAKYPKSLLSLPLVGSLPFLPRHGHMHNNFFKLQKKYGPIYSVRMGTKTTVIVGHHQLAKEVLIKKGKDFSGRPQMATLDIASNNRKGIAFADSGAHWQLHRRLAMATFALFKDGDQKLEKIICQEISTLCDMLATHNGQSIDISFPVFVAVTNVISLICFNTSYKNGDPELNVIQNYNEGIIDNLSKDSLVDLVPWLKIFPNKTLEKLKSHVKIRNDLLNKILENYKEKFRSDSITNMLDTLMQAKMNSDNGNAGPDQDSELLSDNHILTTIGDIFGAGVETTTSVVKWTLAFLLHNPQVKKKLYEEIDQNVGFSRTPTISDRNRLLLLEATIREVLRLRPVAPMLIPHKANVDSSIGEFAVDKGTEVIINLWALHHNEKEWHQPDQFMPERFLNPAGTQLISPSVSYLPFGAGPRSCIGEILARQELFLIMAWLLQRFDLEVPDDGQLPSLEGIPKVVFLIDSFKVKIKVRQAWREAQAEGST
Procedure: as §1

[3] = target: CYP106A2 (Priestia megaterium, UniProt Q06069); assay: Absorbance difference spectra titration of CYP106A2; format: binding, bacterial; conditions: 1 µM CYP106A2; for difference spectrum increase / λmax on binding to CYP106A2: 393 nm = type I, 435 nm = heme Fe-isonitrile bond
CYP106A2, sequence (Q06069 whole entry): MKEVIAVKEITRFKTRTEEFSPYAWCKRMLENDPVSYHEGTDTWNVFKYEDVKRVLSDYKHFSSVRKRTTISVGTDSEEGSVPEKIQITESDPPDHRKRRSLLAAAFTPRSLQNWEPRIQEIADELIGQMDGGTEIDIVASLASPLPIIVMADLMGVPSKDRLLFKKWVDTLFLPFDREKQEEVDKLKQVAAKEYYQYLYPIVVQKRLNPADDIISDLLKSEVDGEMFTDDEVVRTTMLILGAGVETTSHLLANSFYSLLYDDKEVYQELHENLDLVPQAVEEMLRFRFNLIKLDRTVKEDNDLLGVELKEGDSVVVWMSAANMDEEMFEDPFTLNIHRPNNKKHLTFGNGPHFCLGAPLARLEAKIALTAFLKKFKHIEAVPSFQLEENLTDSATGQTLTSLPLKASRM
Procedure: Fig. 5 CYP106A2 interaction with steroidal isonitriles. […] Maximum concentration of 2 (light blue trace) is 20 µM. […] Maximum concentration of 4 is ~10 µM (blue trace). C Overlay of 800 MHz ^1H,^15N-TROSY-HSQC spectra of ^15N-Gly-labeled CYP106A2 with levopimaric acid p-benzoquinone Diels-Alder adduct bound after reduction with sodium dithionite and treatment with carbon monoxide (red), or with 7,17-(bis)isonitrile 4 (blue) after anaerobic reduction with sodium dithionite.

[4] = target: T3, CYP17A1 (Homo sapiens, UniProt P05093); assay: biochemical
T3 construct: made in house
T3 sequence (P05093 24-508 limits assumed): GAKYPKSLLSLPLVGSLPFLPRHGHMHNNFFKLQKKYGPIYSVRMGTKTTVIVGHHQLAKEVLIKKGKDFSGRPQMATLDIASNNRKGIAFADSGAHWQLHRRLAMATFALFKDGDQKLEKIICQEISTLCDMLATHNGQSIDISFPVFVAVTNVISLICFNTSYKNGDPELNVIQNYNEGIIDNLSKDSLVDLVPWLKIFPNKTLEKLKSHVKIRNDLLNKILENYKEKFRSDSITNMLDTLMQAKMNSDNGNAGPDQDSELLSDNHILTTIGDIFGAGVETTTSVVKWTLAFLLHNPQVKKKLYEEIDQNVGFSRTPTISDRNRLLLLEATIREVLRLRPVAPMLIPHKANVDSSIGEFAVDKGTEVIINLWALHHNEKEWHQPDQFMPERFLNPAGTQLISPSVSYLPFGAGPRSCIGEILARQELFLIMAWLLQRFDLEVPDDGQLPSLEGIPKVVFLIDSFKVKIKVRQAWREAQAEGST
Procedure: Metabolic activity of CYP17A1 was evaluated by measuring 17α-hydroxylation of progesterone as detected by HPLC with UV detection at 240 nm. A 1:4 ratio of CYP17A1 to recombinant NADPH-cytochrome P450 reductase was mixed and incubated on ice for 20 min. […] Reaction vials were warmed to 37 °C for 3 min, then catalysis was initiated by adding NADPH to a final concentration of 1 mM. After 10 min, metabolism was quenched by adding 300 µL of 20% trichloroacetic acid and placed on ice. The reaction vials were centrifuged to pellet the precipitated protein, then the supernatant was injected onto a C18 column for HPLC identification of product. Metabolite elution was normalized to β-estradiol as an internal standard. A standard curve of known product concentrations was used to convert normalized area under curve to amount of product produced. A four-parameter variable-slope equation was used to fit the data and calculate IC50 values for inhibitors using GraphPad Prism 9.
195 Metabolic activity of CYP17A1 was evaluated by measuring 17α-hydroxylation of progesterone as detected
196 by HPLC with UV detection at 240 nm. A 1:4 ratio of CYP17A1 to recombinant NADPH-cytochrome P450
197 reductase was mixed and incubated on ice for 20 minutes. This mixture was added to buffer (50 mM Tris, pH
199 Reaction vials were warmed to 37 °C for three minutes, then catalysis was initiated by adding NADPH to a
200 final concentration of 1 mM. After 10 minutes, metabolism was quenched by adding 300 µL of 20%
201 trichloroacetic acid and placed on ice. The reaction vials were centrifuged to pellet the precipitated protein,
202 then the supernatant was injected onto a C18 column (Phenomenex, Luna, 50 x 4.6 mm) for HPLC. The 30-
203 minute HPLC method ran at 0.8 mL/min and started with a mobile phase of 60% acetonitrile, 40% water with
204 0.2% acetic acid for five minutes, in creased to 80% acetonitrile over 10 minutes, held at 80% acetonitrile for
205 five minutes, 100% acetonitrile for five minutes, then returned to 60% acetonitrile to prepare for the next
206 sample. Metabolite elution was normalized to β-estradiol as an internal standard. A standard curve of known
207 product concentrations was used to convert normalized area under curve to amount of product produced. A
208 four-parameter variable-slope equation (Y=Ymin + (Ymax-Ymin)/(1+(IC50/X)^(Hill Slope))) was used to fit the data
209 and calculate IC50 values for inhibitors using GraphPad Prism 9.

T1 sequence (P08684 whole entry): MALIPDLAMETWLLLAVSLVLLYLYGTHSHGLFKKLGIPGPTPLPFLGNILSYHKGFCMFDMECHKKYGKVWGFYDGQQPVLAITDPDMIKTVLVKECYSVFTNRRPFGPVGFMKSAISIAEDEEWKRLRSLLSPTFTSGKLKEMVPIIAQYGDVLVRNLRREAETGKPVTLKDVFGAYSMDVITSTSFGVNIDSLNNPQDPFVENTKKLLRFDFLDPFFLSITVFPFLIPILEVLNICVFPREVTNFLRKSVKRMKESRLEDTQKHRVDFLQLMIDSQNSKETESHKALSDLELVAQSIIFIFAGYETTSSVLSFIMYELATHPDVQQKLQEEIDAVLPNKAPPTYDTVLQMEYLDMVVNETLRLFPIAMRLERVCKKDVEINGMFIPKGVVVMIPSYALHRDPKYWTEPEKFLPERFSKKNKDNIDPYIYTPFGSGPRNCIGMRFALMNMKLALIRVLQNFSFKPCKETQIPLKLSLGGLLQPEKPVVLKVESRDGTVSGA

SMILES | Soret peak after titration (heme spectral shift from 417 nm water-bound) [2] [nm] | spectral response / binding mode on CYP106A2 [3] | difference spectrum increase / λmax on binding to CYP106A2 [3] [nm] | further results
CC(=O)[C@H]1CC[C@H]2[C@@H]3CC[C@H]4C[C@@H](OC=O)CC[C@]4(C)[C@H]3CC[C@]12C [3β-formyl-5α-pregnanalone, reference compound] |  |  |  | Kd fold higher than 20-(R)-1 ([1]; CYP3A4, parent steroid versus 20-(R)-1): ~ 20 fold; Kd ([1]; protein 200 nM, 5 cm cuvette, tight-binding or quadratic equation, Fig. 4B: n = 3, 95% CI 120–215 nM, read-out: dissociation constant (Kd)): ~3200 nM
[C-]#[N+][C@H]1CC[C@H]2[C@@H]3CC[C@H]4C[C@@H](OC=O)CC[C@]4(C)[C@H]3CC[C@]12C [Compound 2] | 420 | weak type I (substrate-like) blue shift | 393 | 
[C-]#[N+][C@H]1CC[C@H]2[C@@H]3CC=C4C[C@@H](OC=O)CC[C@]4(C)[C@H]3CC[C@]12C [Compound 3] |  |  | 393 | 
[C-]#[N+]C1C=C2C[C@@H](OC=O)CC[C@]2(C)[C@H]2CC[C@]3(C)[C@@H]([N+]#[C-])CC[C@H]3[C@H]12 (stereo partly shown) [Compound 4] |  | does form an iron-isonitrile bond; also recorded: bind with the shift expected for Fe—CN—R bond formation | 435 | 
C[C@]12CC[C@H](O)CC1=CC[C@@H]1[C@@H]2CC[C@]2(C)C(c3cccnc3)=CC[C@@H]12 [abiraterone] | 424 |  |  | Kd ([2]; protein 200 nM, 95% CI undefined to 3.8 nM, read-out: dissociation constant estimate (tight binding equation fit)): 0.044 nM; slope of the inhibition curve ([4]; CYP17A1 progesterone hydroxylation): 1.1; IC50 fold lower than for 1 ([4]; abiraterone versus 1): 27 fold; IC50 ([4]; triplicate, four-parameter variable-slope fit, read-out: IC50, CYP17A1 progesterone hydroxylation): 47 nM
